Tests used:
[1] = Finkelstein and Chiang, J. Med. Chem. 11, 1038 (1968); cited from earlier work
[2] = Acute intravenous toxicity in mice (LD50, Miller and Tainter); details: mouse, in vivo, mice weighing 20 to 22 g
Description: The chemical compounds described above were subjected to toxicity controls. This study was carried out on conventional mice weighing 20 to 22 g. The watersoluble salts of the compounds of general formula I were administered intravenously. The 50% lethal dose (LD50) is calculated according to the method of Miller and Tainter (Proc. Soc. Exp. Biol. Med. 1944, 57, 261).

anesthetized rats = test: Coronary ligation in anesthetized rats (antiarrhythmic activity and heart rate); assay type: in vivo; details: for % fall in heart rate after 1 min: 1 min after injection; for % fall in heart rate after 1 min / % fall in heart rate after 10 min: % change relative to controls; for % fall in heart rate after 10 min: 10 min after injection; for % fall in arrhythmias: coronary ligation
Source text: a) The technique of coronary ligation in anesthetized rats according to Clark et al. (J. Pharm. […] SC denotes the percentage reduction in disorders of rhythm induced by these compounds, n denotes the number of animals.

[3] = system: rats anesthetized with pentobarbital sodium; test: Bradycardic effect and intracardiac conduction times (ECG, arterial pressure) in pentobarbital-anesthetized rats; assay type: in vivo; details: for % ABP (mean arterial blood pressure) / % HR (heart rate): % change at peak of action; for % modification of the ECG intervals: PQ (atrioventricular conduction time) / % modification of the ECG intervals: QRS (intraventricular conduction time) / % modification of the ECG intervals: QTS / % modification of the ECG intervals: TP (electrocardiac diastole): at peak of action
Description: b) The bradycardic effect and the analysis of the intracardiac conduction times were studied on rats anesthetized with pentobarbital sodium (40 mg/kg ip) and left in spontaneous ventilation. The electrocardiogram is recorded simultaneously in the standard leads OI, OII and OIII; the arterial blood pressure is measured on a femoral artery. The percentage changes are considered at the peak of action. The results relating to the compounds A, B, J, G and N are given in Table III, by way of non-limiting example.

conscious dogs = test: Bradycardic effect in conscious dogs with hydralazine-raised heart rate (Kobinger and Lillie); assay type: in vivo; details: 1 mg/kg iv
Description: When the latter has stabilized, the test products are injected intravenously.

Right atrium = test: Chronotropic effect on isolated spontaneously beating right atrium; set-up: species or system guineapig; details: Cavia porcellus, spontaneous rhythm, percentage change
Description: (§1) c) Finally, the chronotropic and inotropic activities were measured on isolated guineapig atria placed in isolated organ cells. The organs are then connected to force gauges. The right atrium, beating in a spontaneous rhythm, enables the negative chronotropic effects of the products to be assessed. As regards the left atria, these are electrically stimulated at a fixed rhythm so as to evaluate actions on the inotropic effect. The percentage changes are recorded in Table V for the compounds A, B, G and J, by way of non-limiting examples.

Left atrium = test: Inotropic effect on isolated electrically stimulated left atrium; set-up: species or system guineapig; details: Cavia porcellus, electrically stimulated at fixed rhythm, percentage change
Description: as §1

Solubility in water = assay type: physicochemical

Structure (SMILES): CCN(CC)CCN1COc2ccccc2C1=O [3-(2-diethylaminoethyl)-2,3-dihydro-4H-1,3-benzoxazin-4-one]
- pharmacological result [1]: inactive

Structure (SMILES): COc1ccc(CCN(C)CCCN2COc3cc(OC)c(OC)cc3C2=O)cc1OC.Cl [Compound B, 2,3-Dihydro-6,7-dimethoxy-3-{3-[(methyl)(3,4-dimethoxyphenethyl)amino]propyl}-4H-1,3-benzoxazin-4-one hydrochloride]
- LD50 [2]: 48 mg/kg
- % fall in heart rate after 1 min (anesthetized rats; 2.5 mg/kg iv): -50%
- % fall in heart rate after 10 min (anesthetized rats; 2.5 mg/kg iv): -28%
- % fall in arrhythmias (anesthetized rats; 2.5 mg/kg iv): -38%
- % fall in heart rate after 1 min (anesthetized rats; 10 mg/kg iv): -66%
- % fall in heart rate after 10 min (anesthetized rats; 10 mg/kg iv): -60%
- % fall in arrhythmias (anesthetized rats; 10 mg/kg iv): -80%
- % ABP (mean arterial blood pressure) ([3]; 1 mg/kg iv): -16%
- % HR (heart rate) ([3]; 1 mg/kg iv): -32%
- % modification of the ECG intervals: PQ (atrioventricular conduction time) ([3]; 1 mg/kg iv): +9%
- % modification of the ECG intervals: QRS (intraventricular conduction time) ([3]; 1 mg/kg iv): +12%
- % modification of the ECG intervals: QTS ([3]; 1 mg/kg iv): +38%
- % modification of the ECG intervals: TP (electrocardiac diastole) ([3]; 1 mg/kg iv): +95%
- % ABP (mean arterial blood pressure) ([3]; 3 mg/kg iv): -34%
- % HR (heart rate) ([3]; 3 mg/kg iv): -55%
- % modification of the ECG intervals: PQ (atrioventricular conduction time) ([3]; 3 mg/kg iv): +17%
- % modification of the ECG intervals: QRS (intraventricular conduction time) ([3]; 3 mg/kg iv): +24%
- % modification of the ECG intervals: QTS ([3]; 3 mg/kg iv): +75%
- % modification of the ECG intervals: TP (electrocardiac diastole) ([3]; 3 mg/kg iv): +211%
- Heart rate after (conscious dogs; after test product, hydralazine tachycardia): 105 bts/min
- Heart rate before (conscious dogs; before test product, after hydralazine 1 mg/kg iv): 175 bts/min
- Heart rate Change (conscious dogs; hydralazine tachycardia): -40%
- inhibition at 0.3 µg/mL (Right atrium; 0.3 ug/ml): 27%
- inhibition at 1 µg/mL (Right atrium; 1 ug/ml): 64%
- inhibition at 0.3 µg/mL (Left atrium; 0.3 ug/ml): 9%
- inhibition at 1 µg/mL (Left atrium; 1 ug/ml): 6.5%
- solubility (Solubility in water): > 100 mg/mL
